Results reported in patent US20090018156A1, “Pyrrolo [2,3,B] Pyridine Derivatives Useful As RAF Kinase Inhibitors” (priority 2006, published 2009).
Read-outs that look alike come from different tables or passages of the source.

Test system: B-Raf mediated phosphorylation of MEK1
Experiment: Cellular assay of B-Raf mediated phosphorylation of MEK1 in co-transfected 3T3 cells
Type: cell-based
Conditions: Mus musculus, NIH3T3, 2 h, two hours exposure, anti-phospho-MEK1/2 immunoassay
Protocol: B-Raf mediated phosphorylation of MEK1 was measured in a cellular assay. Expression constructs for B-Raf and FLAG-tagged MEK1 (a B-raf substrate) were co-transfected in 3T3 cells and gene expression was induced using the GeneSwitch™ system for inducible mammalian expression (Invitrogen). Four hours following the induction of expression of B-Raf and MEK1, cells were exposed to the test compounds for two hours. The cells were then lysed, and then an immunoassay was performed using anti-phospho-MEK1/2 (Cell Signaling Technlogoies) to detect the percent inhibition of MEK1 phosphorylation.

[1] = 3T3 cells co-transfected with B-Raf and FLAG-tagged MEK1, read-out: Potency (IC50, inhibition of MEK1 phosphorylation)
[2] = read-out: Potency (IC50, inhibition of MEK1 phosphorylation), 3T3 cells co-transfected with B-Raf and FLAG-tagged MEK1

CCn1cc(-c2ccnc3[nH]ccc23)c(-c2cccc(NC(=O)Nc3c(F)cccc3F)c2)n1 [Example 6, N-(2,6-Difluorophenyl)-N-{3-[1-ethyl-4-(1H-pyrrolo[2,3-b]pyridin-4-yl)-1H-pyrazol-3-yl]phenyl}urea]
IC50 [1]: < 6 µM

CCn1cc(-c2ccnc3[nH]ccc23)c(-c2cccc(NC(=O)NC3CCCCC3)c2)n1 [Example 8, N-Cyclohexyl-N-{3-[1-ethyl-4-(1H-pyrrolo[2,3-b]pyridin-4-yl)-1H-pyrazol-3-yl]phenyl}urea]
IC50 [2]: < 6 µM

CCn1cc(-c2ccnc3[nH]ccc23)c(-c2cccc(NC(=O)NCc3ccccc3)c2)n1 [Example 9, N-{3-[1-Ethyl-4-(1H-pyrrolo[2,3-b]pyridin-4-yl)-1H-pyrazol-3-yl]phenyl}-N-(phenylmethyl)urea]
IC50 [2]: < 6 µM

CCn1cc(-c2ccnc3[nH]cc(Cl)c23)c(-c2cccc(NC(=O)Nc3ccccc3)c2)n1 [Example 13, N-{3-[4-(3-Chloro-1H-pyrrolo[2,3-b]pyridin-4-yl)-1-ethyl-1H-pyrazol-3-yl]phenyl}-N-phenylurea]
IC50 [1]: > 6 µM

CCn1cc(-c2ccnc3[nH]cc(Br)c23)c(-c2cccc(NC(=O)Nc3ccccc3)c2)n1 [Example 14, N-{3-[4-(3-Bromo-1H-pyrrolo[2,3-b]pyridin-4-yl)-1-ethyl-1H-pyrazol-3-yl]phenyl}-N-phenylurea]
IC50 [1]: < 6 µM
